Columns and labels:
[1] = tested on: human airway epithelial cells (HAECs); assay: Agilent miRNA chips, miRNA expression at four stages of differentiation of HAECs; conditions: for Modulation (ratio of the level of intensity of expression in log2 in two stages of differentiation) measured with the Agilent chips, D7 − D0 / Modulation (ratio of the level of intensity of expression in log2 in two stages of differentiation) measured with the Agilent chips, FC − D7 / Modulation (ratio of the level of intensity of expression in log2 in two stages of differentiation) measured with the Agilent chips, WD − D0 / Modulation (ratio of the level of intensity of expression in log2 in two stages of differentiation) measured with the Agilent chips, WD − FC / Level of intensity of expression in log2 measured with the Agilent chips, D0 / Level of intensity of expression in log2 measured with the Agilent chips, D7 / Level of intensity of expression in log2 measured with the Agilent chips, FC / Level of intensity of expression in log2 measured with the Agilent chips, WD: Table VI; for Modulation (ratio of the level of intensity of expression in log2 at two stages of differentiation), FC − D7 / Modulation (ratio of the level of intensity of expression in log2 at two stages of differentiation), WD − FC: Agilent miRNA chips, Table V; for Level of intensity of expression in log2 measured with the Agilent chips, D0: stage D0; for Level of intensity of expression in log2 measured with the Agilent chips, D7: stage D7; for Level of intensity of expression in log2 measured with the Agilent chips, FC: stage FC; for Level of intensity of expression in log2 measured with the Agilent chips, WD: stage WD
In short: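 RNA from the same patients' HAECs at four differentiation stages was labelled and hybridized with the Agilent miRNA labeling and hybridization kit. Chips were Human miRNA Microarray v2, with 866 human and 89 viral miRNAs (miRBase v12.0). Profiles were compared with high-throughput sequencing data.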

[2] = tested on: human airway epithelial cells (HAECs); assay: High-throughput sequencing (HTS) of miRNAs at four stages of differentiation of HAECs; conditions: for Modulation (ratio of the level of intensity of expression in log2 in two stages of differentiation) measured by high-throughput sequencing, D7 − D0 / Modulation (ratio of the level of intensity of expression in log2 in two stages of differentiation) measured by high-throughput sequencing, FC − D7 / Modulation (ratio of the level of intensity of expression in log2 in two stages of differentiation) measured by high-throughput sequencing, WD − D0 / Modulation (ratio of the level of intensity of expression in log2 in two stages of differentiation) measured by high-throughput sequencing, WD − FC / Level of intensity of expression in log2 measured by high-throughput sequencing, D0 / Level of intensity of expression in log2 measured by high-throughput sequencing, D7 / Level of intensity of expression in log2 measured by high-throughput sequencing, FC / Level of intensity of expression in log2 measured by high-throughput sequencing, WD: Table VI; for Level of intensity of expression in log2 At the differentiated stage (WD) measured in HTS: healthy human airway epithelial tissue; for Level of intensity of expression in log2 measured by high-throughput sequencing, D0: stage D0; for Level of intensity of expression in log2 measured by high-throughput sequencing, D7: stage D7; for Level of intensity of expression in log2 measured by high-throughput sequencing, FC: stage FC; for Level of intensity of expression in log2 At the differentiated stage (WD) measured in HTS / Level of intensity of expression in log2 measured by high-throughput sequencing, WD: stage WD
In short: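 Differentiation time course at air-liquid interface: 0, 7, ~14 (first cilia) and ~21 days (fully differentiated). Sequencing counts per strand were normalized to 10^6 sequences and analysed by linear model with empirical Bayesian moderation.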

[3] = tested on: basal cells and pyramidal cells of the airway epithelium; assay: miRNA expression in sorted basal cells versus pyramidal cells (ciliated + secretory), HTS and Agilent chips; set-up: species or system human; conditions: for Modulation of expression of the miRNAs in pyramidal cells (323(−)) relative to basal cells 323(+): HTS and Agilent chips; for Intensity of the level of expression in log2 in pyramidal cells (323(−)): pyramidal cells (ciliated + secretory)
In short: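 Sorted basal versus ciliated/mucus-secreting cells; markers CD151 and tissue factor; donors n=3; miRNA by Agilent chip or HTS.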

| Substance | Modulation (ratio of the level of intensity of expression in log2 in two stages of differentiation) measured with the Agilent chips, D7 − D0 [1] [log2] | Modulation (ratio of the level of intensity of expression in log2 in two stages of differentiation) measured with the Agilent chips, FC − D7 [1] [log2] | Modulation (ratio of the level of intensity of expression in log2 in two stages of differentiation) measured with the Agilent chips, WD − D0 [1] [log2] | Modulation (ratio of the level of intensity of expression in log2 in two stages of differentiation) measured with the Agilent chips, WD − FC [1] [log2] | Level of intensity of expression in log2 measured with the Agilent chips, D0 [1] [log2] | Level of intensity of expression in log2 measured with the Agilent chips, D7 [1] [log2] | Level of intensity of expression in log2 measured with the Agilent chips, FC [1] [log2] | Level of intensity of expression in log2 measured with the Agilent chips, WD [1] [log2] | Modulation (ratio of the level of intensity of expression in log2 in two stages of differentiation) measured by high-throughput sequencing, D7 − D0 [2] [log2] | Modulation (ratio of the level of intensity of expression in log2 in two stages of differentiation) measured by high-throughput sequencing, FC − D7 [2] [log2] | Modulation (ratio of the level of intensity of expression in log2 in two stages of differentiation) measured by high-throughput sequencing, WD − D0 [2] [log2] | Modulation (ratio of the level of intensity of expression in log2 in two stages of differentiation) measured by high-throughput sequencing, WD − FC [2] [log2] | Level of intensity of expression in log2 At the differentiated stage (WD) measured in HTS [2] [log2] | Level of intensity of expression in log2 measured by high-throughput sequencing, D0 [2] [log2] | Level of intensity of expression in log2 measured by high-throughput sequencing, D7 [2] [log2] | Level of intensity of expression in log2 measured by high-throughput sequencing, FC [2] [log2] | Level of intensity of expression in log2 measured by high-throughput sequencing, WD [2] [log2] | Modulation of expression of the miRNAs in pyramidal cells (323(−)) relative to basal cells 323(+) [3] | Intensity of the level of expression in log2 in basal cells (323(+)) [3] [log2] | Intensity of the level of expression in log2 in pyramidal cells (323(−)) [3] [log2] | also measured |
| --- | --- | --- | --- | --- | --- | --- | --- | --- | --- | --- | --- | --- | --- | --- | --- | --- | --- | --- | --- | --- | --- |
| hsa-miR-100: human miRNA, SEQ ID No. 1 (AACCCGUAGAUCCGAACUUGUG; expressed or natural sequence; listed as Homo sapiens) | −0.46 | −1.25 | −1.49 | 0.22 | 8.00 | 7.55 | 6.29 | 6.52 | −1.05 | −2.36 | −1.72 | 1.69 | 9.00 | 10.72 | 9.67 | 7.32 | 9.00 | 1.62 | 3.28 | 4.90 | Modulation (ratio of the level of intensity of expression in log2 at two stages of differentiation), FC − D7 [1]: −1.25 log2; Modulation (ratio of the level of intensity of expression in log2 at two stages of differentiation), WD − FC [1]: 0.22 log2 |
| hsa-miR-151-5p: human miRNA, SEQ ID No. 8 (UCGAGGAGCUCACAGUCUAGU; expressed or natural sequence; listed as Homo sapiens) | 1.83 | −0.37 | 1.46 | 0.00 | 6.71 | 8.54 | 8.17 | 8.17 | 1.13 | −0.02 | 1.02 | −0.09 | 10.22 | 9.20 | 10.33 | 10.31 | 10.22 | −0.73 | 7.24 | 6.51 | Modulation (ratio of the level of intensity of expression in log2 at two stages of differentiation), FC − D7 [1]: −0.37 log2; Modulation (ratio of the level of intensity of expression in log2 at two stages of differentiation), WD − FC [1]: 0.00 log2 |
| hsa-miR-210: human miRNA, SEQ ID No. 22 | 0.18 | −0.63 | −0.56 | −0.11 | 9.08 | 9.25 | 8.63 | 8.52 | −0.96 | −0.74 | −1.80 | −0.10 | 9.29 | 12.29 | 11.33 | 10.60 | 10.49 | −2.03 | 6.60 | 4.57 | Modulation (ratio of the level of intensity of expression in log2 in two stages of differentiation), D7 − D0 ([2]; HTS): −0.96 log2; Modulation (ratio of the level of intensity of expression in log2 in two stages of differentiation), FC − D7 ([2]; HTS): −0.74 log2; Modulation (ratio of the level of intensity of expression in log2 in two stages of differentiation), WD − FC ([2]; HTS): −0.10 log2; Abundance (%), D0 ([2]; HTS, ALI-D0): 1.10%; Abundance (%), D7 ([2]; HTS, ALI-D7): 0.57%; Abundance (%), FC ([2]; HTS, ALI-FC): 0.33%; Abundance (%), WD ([2]; HTS, ALI-WD): 0.23% |
| hsa-miR-30e: human miRNA, SEQ ID No. 36 (UGUAAACAUCCUUGACUGGAAG; expressed or natural sequence; listed as Homo sapiens) | 2.76 | −0.25 | 2.38 | −0.13 | 6.73 | 9.50 | 9.25 | 9.12 | 1.27 | −0.02 | 1.71 | 0.46 | 12.74 | 7.04 | 8.31 | 8.30 | 8.76 | −1.60 | 6.94 | 5.34 | Modulation (ratio of the level of intensity of expression in log2 at two stages of differentiation), FC − D7 [1]: −0.25 log2; Modulation (ratio of the level of intensity of expression in log2 at two stages of differentiation), WD − FC [1]: −0.13 log2 |

From patent US9023821B2, “Use of MicroRNA for treating diseases associated with a dysfunction of the cilia in multiciliated epithelial cells” (Centre National de la Recherche Scientifique, priority 2009, dated 2015)
